PubChem BioAssay AID179 (DTP/NCI, 2004)
The source made the active and inactive calls.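 How the source made its calls: active means compounds giving half or more protection of infected cells from virus-caused growth loss, again on retest; inactive means the rest.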

System: CEM cells HIV-1 protection, formazan growth assay
Assay: NCI AIDS Antiviral Assay
Conditions: for IC50: measured here: growth of uninfected CEM cells
Procedure, shortened: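 Screen of anti-HIV-1 activity in human CEM cells using a formazan-based growth measurement at five drug concentrations. Hits with 50% or greater protection were repeated, and confirmation required reproducible complete protection.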

In the case of Cc1cccc(/C=N/NC(=S)N2CCCC2)n1, the EC50 is reported as over 100 µM and the IC50 is reported as 0.115 µM.
N#Cc1sc2c(c1OC(=O)c1ccc(C(F)(F)F)cc1)c(=O)n(-c1ccccc1)c(=S)n2-c1ccccc1 showed an EC50 of over 200 µM and an IC50 of 2.24 µM.
Compound O=C(N=Nc1c(O)[nH]c2ccccc12)C(O)(c1ccccc1)c1ccccc1 has an EC50 of over 200 µM and an IC50 of 39.8 µM.
Compound CC(C)S(=O)(=O)c1s[nH]c(=O)c1-c1ccccc1 has an EC50 of over 178 µM and an IC50 of over 178 µM.
For Cc1cccc(C)c1NC(=O)/C(Cl)=C(/Cl)C(=O)O, the outcome was “inactive”.
For COc1c(OP2(=S)OCC(C)(C)CO2)cnn(C2CCCCC2)c1=O, the EC50 was over 200 µM and the IC50 was 24.5 µM.
With O=C(O)CCC(=O)OCCNCCOC(=O)CCC(=O)O the outcome was “inactive”.
With CCN(CC)CCCCC1CCN(CC(=O)N2c3cc(Cl)ccc3NC(=O)CC2C)CC1 (centres undefined) the EC50 was over 251 µM and the IC50 was 66.1 µM.
For CC1(C)OC(=O)CC2(C)OC12 (centres undefined), the EC50 was over 200 µM and the IC50 was over 200 µM.
For COc1cc2c(cc1Oc1ccc(OC)c3c1CC1c4c(cc(OC)c(OC)c4-3)CCN1C)CC1c3c(cc(OC)c(OC)c3-2)CCN1C (centres undefined), the outcome was “inactive”.
With NC(=S)Nc1ccc2c(c1)oc1ccccc12 the EC50 was over 200 µM and the IC50 was over 200 µM.
Compound C=CCCCN1CCCCC1=S has an EC50 of over 251 µM and an IC50 of over 251 µM.
Cc1ccc(NC(Nc2ccc(C)cc2C)=C(C(Cl)=C(Cl)Cl)[N+](=O)[O-])c(C)c1 gave an EC50 of over 200 µM and an IC50 of 7.94 µM.
COc1c(OC)c(C2(O)C(=O)N(C)c3ccccc32)c2c(c1C1(O)C(=O)N(C)c3ccccc31)OCO2 (centres undefined) gave an EC50 of over 200 µM and an IC50 of over 200 µM.
For CCCCN(CCCC)C(=O)C(=O)C(C)C(=O)CC (centres undefined), the outcome was “inactive”.
With CCCn1c(=O)c(N2CCN(c3ccccc3)CC2)nc2sc3ccccc3c21 the EC50 was over 200 µM and the IC50 was over 200 µM.
CC(O)C1OC(n2cnc3c(=O)[nH]c(N)nc32)C(O)C1O (centres undefined) was tested, and the EC50 was over 170 µM and the IC50 was over 170 µM.
For C#CCOCC12C=CC(O1)C1COC(=O)C12 (centres undefined), the EC50 was over 200 µM and the IC50 was over 200 µM.
COC(=O)C(Cc1ccccc1)NC(=O)C(CCCN=C(N)N)NC(=O)OCc1ccccc1 (centres undefined) showed an EC50 of over 200 µM and an IC50 of over 200 µM.
With COc1cccc(Nc2nc(NNC(=O)Cc3ccccc3)nc(NNC(=O)c3ccncc3)n2)c1 the EC50 was over 200 µM and the IC50 was over 200 µM.
Work on O=CNc1ccccc1OCCOc1ccccc1NC=O yielded an EC50 of over 200 µM and an IC50 of over 200 µM.
With CC(C)(C)[Si](C)(C)OCC1OC(n2cnc3c(=O)[nH]c(NCc4cccc5ccccc45)nc32)C(O[Si](C)(C)C(C)(C)C)C1O[Si](C)(C)C(C)(C)C (centres undefined) the EC50 was over 200 µM and the IC50 was over 200 µM.
For CCOC(=O)C#CCC/C=C(\C)COC1CCCCO1 (centres undefined), the outcome was “inactive”.
Work on CCOC(=O)C(=O)Nc1ccc([N+](=O)[O-])cc1C#N yielded an EC50 of over 355 µM and an IC50 of over 355 µM.
O=C1Cc2ccccc2N1/N=C\c1ccc(O)cc1 was tested, and the EC50 was over 372 µM and the IC50 was 39.8 µM.
CC1OC(OP(=O)(OCc2ccccc2)OCc2ccccc2)C(OC(=O)c2ccccc2)C(OC(=O)c2ccccc2)C1I (centres undefined) was tested, and the EC50 was over 25.1 µM and the IC50 was over 25.1 µM.
For C=CCOC1=C2CC[C@H](O)[C@@]2(C)CCC1=O, the outcome was “inactive”.
In the case of NNC(=O)Cn1c2ccc(Br)cc2c2nc3ccccc3nc21, the EC50 is reported as over 200 µM and the IC50 is reported as 28.2 µM.
Compound COc1ccc(C(=O)/C=C/c2ccc3c(c2)OCO3)c(O)c1 has an EC50 of over 200 µM and an IC50 of 81.3 µM.
Work on O=C(NNC(=O)c1ccccc1O)c1ccco1 yielded an EC50 of over 200 µM and an IC50 of 32.4 µM.
With CC(=O)c1cc(-c2ccccn2)c(=O)n2ccccc12 the EC50 was over 200 µM and the IC50 was 112 µM.
O=C(CC(C(=O)c1cccs1)c1cccs1)c1ccccc1Cl (centres undefined) gave an EC50 of over 200 µM and an IC50 of 18.6 µM.
O=C(CSc1nnc(-c2ccc(Cl)cc2)s1)Nc1nccs1 showed an EC50 of over 200 µM and an IC50 of over 200 µM.
Work on O=C1CS(=O)(=O)C(c2ccccc2F)N1N1C(=O)CS(=O)(=O)C1c1ccccc1F (centres undefined) yielded an EC50 of over 151 µM and an IC50 of over 151 µM.
O=C1c2ccccc2C(=O)c2nc3ccc(Cl)cc3cc21 showed an EC50 of over 6.17 µM and an IC50 of over 6.17 µM.
COc1cc([C@H]2Oc3cc([C@H]4Oc5cc(O)cc(O)c5C(=O)[C@@H]4O)ccc3O[C@@H]2CO)ccc1O showed an EC50 of over 200 µM and an IC50 of 66.1 µM.
With COCn1cnc2c(=O)n(-c3ccc(C)cc3)c(=S)n(-c3ccc(C)cc3)c21 the EC50 was over 200 µM and the IC50 was 138 µM.
For COC(=O)C(NC(=O)C12CCC(C)(C(=O)O1)C2(C)C)c1cc(C(C)(C)C)c(O)c(C(C)(C)C)c1 (centres undefined), the EC50 was over 20 µM and the IC50 was over 20 µM.
Compound CCOC(=O)c1cn2c([nH]c3ccccc32)c(C#N)c1=O has an EC50 of over 47.9 µM and an IC50 of over 47.9 µM.
In the case of NC1=C(Br)C(=O)c2ncccc2C1=O, the outcome is reported as “inactive”.
For CC1S(=O)(=O)OCCOS1(=O)=O, the EC50 was over 1150 µM and the IC50 was 123 µM.
CC(=O)OCC1OC(n2c3c(c(-c4ccco4)c(C#N)c2=S)CCC3)C(OC(C)=O)C(OC(C)=O)C1OC(C)=O (centres undefined) showed an EC50 of over 200 µM and an IC50 of 9.77 µM.
CCOC(=O)c1cc(-c2ccc(OC)c(OC)c2)c[nH]1 showed an EC50 of over 200 µM and an IC50 of 50.1 µM.
